Data published in patent US8952024B2, “Herbicidal pyrimidone derivatives” (E I du Pont de Nemours and Company, priority 2009, dated 2015).

How the values were obtained:
Test in all cases: Test C plant response
Assay type in all cases: in vivo
Conditions in all cases: Postemergence, scale 0 to 100
[1] = tested on: wild mustard (Sinapis arvensis)
Method in brief: (§1)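 Test chemicals were applied in a non-phytotoxic solvent mixture containing a surfactant. After 14 days in a controlled growth environment, injury was rated visually against untreated controls on a 0–100 scale (0 no effect, 100 complete control).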

[2] = tested on: canarygrass (Phalaris minor)
Method in brief: as §1

[3] = tested on: winter wheat (Triticum aestivum)
Method in brief: as §1

[4] = tested on: galium (catchweed bedstraw, Galium aparine)
Method in brief: as §1

[5] = tested on: spring barley (Hordeum vulgare)
Method in brief: as §1

[6] = tested on: pigweed (Amaranthus retroflexus)
Method in brief: as §1

[7] = tested on: field violet (Viola arvensis)
Method in brief: as §1

kochia (Kochia scoparia) = tested on: kochia (Kochia scoparia)
Method in brief: as §1

[8] = tested on: Russian thistle (Salsola iberica)
Method in brief: as §1

[9] = tested on: oilseed rape (Brassica napus)
Method in brief: as §1

[10] = tested on: deadnettle (henbit deadnettle, Lamium amplexicaule)
Method in brief: as §1

wild oat (Avena fatua) = tested on: wild oat (Avena fatua)
Method in brief: as §1

[11] = tested on: lambsquarters (Chenopodium album)
Method in brief: as §1

[12] = tested on: wild radish (Raphanus raphanistrum)
Method in brief: as §1

[13] = tested on: bluegrass (annual bluegrass, Poa annua)
Method in brief: as §1

[14] = tested on: blackgrass (Alopecurus myosuroides)
Method in brief: as §1

[15] = tested on: spring wheat (Triticum aestivum)
Method in brief: as §1

[16] = tested on: bromegrass (downy bromegrass, Bromus tectorum)
Method in brief: as §1

[17] = tested on: green foxtail (Setaria viridis)
Method in brief: as §1

[18] = tested on: Italian ryegrass (Lolium multiflorum)
Method in brief: as §1

Cc1ccc(-n2c(-c3ccccc3)ncc(C(=O)C3=C(O)CCCC3=O)c2=O)cc1 [Compound 8]
10: Plant response rating: Canarygrass ([2]; 62 g ai/ha) | Plant response rating: Canarygrass ([2]; 125 g ai/ha) | Plant response rating: Wheat, Winter ([3]; 31 g ai/ha) | Plant response rating: Wheat, Winter ([3]; 16 g ai/ha) | Plant response rating: Barley, Spring ([5]; 31 g ai/ha) | Plant response rating: Field Violet ([7]; 16 g ai/ha) | Plant response rating: Bromegrass, Downy ([16]; 16 g ai/ha)
0: Plant response rating: Canarygrass ([2]; 16 g ai/ha) | Plant response rating: Barley, Spring ([5]; 16 g ai/ha) | Plant response rating: Ryegrass, Italian ([18]; 31 g ai/ha) | Plant response rating: Ryegrass, Italian ([18]; 16 g ai/ha)
30: Plant response rating: Wheat, Winter ([3]; 125 g ai/ha) | Plant response rating: Barley, Spring ([5]; 125 g ai/ha) | Plant response rating: Oat, Wild (wild oat (Avena fatua); 62 g ai/ha) | Plant response rating: Oat, Wild (wild oat (Avena fatua); 125 g ai/ha) | Plant response rating: Blackgrass ([14]; 31 g ai/ha)
50: Plant response rating: Galium ([4]; 16 g ai/ha) | Plant response rating: Bluegrass ([13]; 62 g ai/ha)
65: Plant response rating: Field Violet ([7]; 31 g ai/ha) | Plant response rating: Field Violet ([7]; 62 g ai/ha) | Plant response rating: Field Violet ([7]; 125 g ai/ha) | Plant response rating: Kochia (kochia (Kochia scoparia); 16 g ai/ha)
75: Plant response rating: Galium ([4]; 31 g ai/ha) | Plant response rating: Bluegrass ([13]; 125 g ai/ha)
70: Plant response rating: Kochia (kochia (Kochia scoparia); 31 g ai/ha)
25: Plant response rating: Wheat, Winter ([3]; 62 g ai/ha) | Plant response rating: Bluegrass ([13]; 31 g ai/ha) | Plant response rating: Bromegrass, Downy ([16]; 31 g ai/ha)
35: Plant response rating: Blackgrass ([14]; 62 g ai/ha) | Plant response rating: Blackgrass ([14]; 125 g ai/ha) | Plant response rating: Bromegrass, Downy ([16]; 62 g ai/ha) | Plant response rating: Ryegrass, Italian ([18]; 125 g ai/ha)
95: Plant response rating: Mustard, Wild ([1]; 31 g ai/ha) | Plant response rating: Pigweed ([6]; 31 g ai/ha) | Plant response rating: Pigweed ([6]; 16 g ai/ha) | Plant response rating: Russian Thistle ([8]; 62 g ai/ha) | Plant response rating: Russian Thistle ([8]; 125 g ai/ha) | Plant response rating: Deadnettle ([10]; 31 g ai/ha) | Plant response rating: Radish, Wild ([12]; 31 g ai/ha) | Plant response rating: Foxtail, Green ([17]; 31 g ai/ha) | Plant response rating: Foxtail, Green ([17]; 16 g ai/ha) | Plant response rating: Foxtail, Green ([17]; 62 g ai/ha)
20: Plant response rating: Barley, Spring ([5]; 62 g ai/ha) | Plant response rating: Oat, Wild (wild oat (Avena fatua); 31 g ai/ha) | Plant response rating: Oat, Wild (wild oat (Avena fatua); 16 g ai/ha) | Plant response rating: Blackgrass ([14]; 16 g ai/ha) | Plant response rating: Wheat, Spring ([15]; 125 g ai/ha) | Plant response rating: Ryegrass, Italian ([18]; 62 g ai/ha)
100: Plant response rating: Oilseed Rape ([9]; 125 g ai/ha) | Plant response rating: Deadnettle ([10]; 125 g ai/ha) | Plant response rating: Lambsquarters ([11]; 125 g ai/ha) | Plant response rating: Radish, Wild ([12]; 125 g ai/ha)
5: Plant response rating: Canarygrass ([2]; 31 g ai/ha) | Plant response rating: Bluegrass ([13]; 16 g ai/ha) | Plant response rating: Wheat, Spring ([15]; 31 g ai/ha) | Plant response rating: Wheat, Spring ([15]; 16 g ai/ha) | Plant response rating: Wheat, Spring ([15]; 62 g ai/ha)
40: Plant response rating: Bromegrass, Downy ([16]; 125 g ai/ha)
80: Plant response rating: Oilseed Rape ([9]; 16 g ai/ha)
85: Plant response rating: Kochia (kochia (Kochia scoparia); 62 g ai/ha) | Plant response rating: Deadnettle ([10]; 16 g ai/ha) | Plant response rating: Radish, Wild ([12]; 16 g ai/ha)
98: Plant response rating: Mustard, Wild ([1]; 62 g ai/ha) | Plant response rating: Mustard, Wild ([1]; 125 g ai/ha) | Plant response rating: Pigweed ([6]; 62 g ai/ha) | Plant response rating: Pigweed ([6]; 125 g ai/ha) | Plant response rating: Oilseed Rape ([9]; 62 g ai/ha) | Plant response rating: Deadnettle ([10]; 62 g ai/ha) | Plant response rating: Lambsquarters ([11]; 31 g ai/ha) | Plant response rating: Lambsquarters ([11]; 16 g ai/ha) | Plant response rating: Lambsquarters ([11]; 62 g ai/ha) | Plant response rating: Radish, Wild ([12]; 62 g ai/ha) | Plant response rating: Foxtail, Green ([17]; 125 g ai/ha)
90: Plant response rating: Galium ([4]; 62 g ai/ha) | Plant response rating: Galium ([4]; 125 g ai/ha) | Plant response rating: Kochia (kochia (Kochia scoparia); 125 g ai/ha) | Plant response rating: Russian Thistle ([8]; 31 g ai/ha) | Plant response rating: Russian Thistle ([8]; 16 g ai/ha) | Plant response rating: Oilseed Rape ([9]; 31 g ai/ha)
